Positions count from the first letter of the chain named.
Legend:
Assay in all cases: SPR
Type in all cases: binding
ADIPOR2 R335A = molecular target: T1, ADIPOR2 R335A (Homo sapiens, UniProt Q86V24, R335A)
T1 sequence (Q86V24 1-386 R335A): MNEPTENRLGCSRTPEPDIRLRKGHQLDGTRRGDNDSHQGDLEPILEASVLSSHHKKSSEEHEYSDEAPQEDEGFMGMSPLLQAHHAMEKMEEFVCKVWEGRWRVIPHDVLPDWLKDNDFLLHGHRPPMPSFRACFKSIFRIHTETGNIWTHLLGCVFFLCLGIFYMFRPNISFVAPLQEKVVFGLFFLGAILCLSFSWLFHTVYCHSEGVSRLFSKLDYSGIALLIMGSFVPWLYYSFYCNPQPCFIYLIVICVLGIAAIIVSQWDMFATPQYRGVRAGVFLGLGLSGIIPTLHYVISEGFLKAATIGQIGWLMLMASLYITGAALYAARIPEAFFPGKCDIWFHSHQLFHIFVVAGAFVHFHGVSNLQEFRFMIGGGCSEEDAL

[1] = molecular target: T2, ADIPOR2 (adiponectin receptor 2) (Homo sapiens, UniProt Q86V24)
T2 sequence (Q86V24 1-386): T1 sequence (Q86V24 1-386 R335A) with A335R

ADIPOR2 R331A = molecular target: T3, ADIPOR2 R331A (Homo sapiens, UniProt Q86V24, R331A)
T3 sequence (Q86V24 1-386 R331A): T1 sequence (Q86V24 1-386 R335A) with R331A, A335R

## COc1cc(C(=O)OCCCCNC(=N)N)cc(OC)c1O [SCM-198]
ADIPOR2 R335A
  Kd: 50.1 µM
[1]
  Kd: 1.99 µM
ADIPOR2 R331A
  Kd: 9.92 µM

Source: PMC11649909 (Nature Communications, 2024)
